Values joined by “and” are separate entries in the source; they are usually repeats but may differ in a detail not shown here. Equal entries are not always repeated.
Tests used:
[1] = Complexation parameters with 2-HP-β-CD from phase-solubility diagrams; assay type: physicochemical; conditions: for increase of the complex stability as compared to L-173: acidic buffer; for Complexation efficiency (CE) / apparent stability constant (KCS): 2-HP-β-CD
Procedure: Thermodynamic functions of the complexation process were determined from the phase solubility diagrams following Higuchi and Connors. The linear AL-type phase-solubility diagrams evidenced the complexes of the first order in respect to cyclodextrin. The equilibrium of the complex formation with 1:1 stoichiometry in the cyclodextrin solution can be described in the following manner:(1) D+CD↔KCD⋅CD where D is the drug molecule, CD is the cyclodextrin molecule, and D·CD is drug/cyclodextrin complex. Respectively, the complexation constant ( KC ) can be expressed by the equation:(2) KC=[D⋅CD]/[D][CD] where [D·CD] is the complex concentration, [CD] is the cyclodextrin concentration, and [D] is the drug concentration. A plot of total solubility ( S2 expressed in molarity—M) in the presence of CD versus CD concentration ( CCD ) (a phase-solubility profile) gives a straight line with a slope equal to (KCS⋅S20/(1+KCS⋅S20)) and intercept equal to S20 from which the apparent stability constants ( KCS ) were estimated via Higuchi–Connors equation [15]:(3) KCS=slope/S20⋅(1−slope), where S20 is the intrinsic solubility of the drug at designated pH in the absence of CD and the slope is the corresponding slope of the phase-solubility diagram.
From CE, the (D:CD) ratio can be derived, which is useful for the estimation of the solubility improvement in CD solutions. Using the CE value, the molar ratio (Drug:CD) was determined:(5) Drug:CD=1:(1+1/CE)

[2] = Thermodynamics of complexation, solubilization and inherent dissolution (mole fraction scale); assay type: physicochemical; conditions: for Gibbs free energy of transfer from pure buffer pH 2.0 to CD solution: Eq. (10)
Procedure: The Gibbs energy change of the inherent (in pure aqueous buffer without CD) dissolution ( ΔGinh/sol0,X ) in mole fraction scale was derived from the compound mole fraction solubility ( X20 ) in the following way:(8) ΔGinh/sol0,X=−RTlnX20
The standard solution enthalpies ΔHinh/sol0,X and entropies ΔSinh/sol0,X were calculated using a linear dependence between lnX20 and 1/T and van’t Hoff equation:(9) lnX20=−ΔHinh/sol0,X/RT+ΔSinh/sol0,X/R
The free energy of transferring a compound from the aqueous buffer solution to the CD solution of a certain CD concentration ( CCD ) (corresponds to solubilization process) was calculated by Equation (10):(10) ΔGslbz0,X(CCD)=−RTlnX2/X20, where X20 is the inherent solubility of the drug in mole fraction in the absence of CD at temperature T, and X2 is the total solubility in the presence of CD at the same temperature, R is the universal gas constant. The solubilization enthalpy ( ΔHslbz0,X(CCD) ) and entropy ( TΔSslbz0,X(CCD) ) were derived as follows:(11) ΔHslbz0,X(CCD)=ΔHsol0,X(CCD)−ΔHsol0,X (12) TΔSslbz0,X(CCD)=TΔSsol0,X(CCD)−TΔSsol0,X where ΔHsol0,X and ΔSsol0,X are the enthalpy and entropy of solubility process of the investigated compounds in the absence of CD, whereas ΔHsol0,X(CCD) and ΔSsol0,X(CCD) are the enthalpy and entropy of solubility process in the presence of CD with concentration CCD .
In order to determine the thermodynamic parameters of the complex formation for the compounds with CD, the stability constants ( KCX , mole fraction scale) at different temperatures were obtained using the phase diagrams and mole fractions ( X20 ) (analogously to Equation (3) by the following equation:(13) KCX=slope/X20⋅(1−slope),
Respectively, the Gibbs energy of the complexation in mole fraction scale ( ΔGC0,X ) was derived from the stability constants ( KCX ) in the following way:(14) ΔGC0,X=−RTlnKCX
The thermodynamic parameters of the complexation, i.e., the standard enthalpy change ( ΔHC0,X ) and the standard entropy change ( ΔSC0,X ) were calculated with the help of the integral form of the van’t Hoff’s equation:(15) lnKCX=−ΔHC0,X/RT+ΔSC0,X/R where a plot of lnKCX versus 1/T produces Slope = −ΔHC0,X/R and intercept equal to ΔSC0,X/R .
In order to understand the contribution of the hydrophobic effect (desolvation) to the complexation process on a relative scale, the approach disclosing the correlation of the free energy of complex formation with the free energy of the substance solubility in the same buffer solution proposed by Al Omari et al. was applied. To this end, the Gibbs energy of complex formation ( ΔGCT,X ) and inherent dissolution ( ΔGinh/solT,X ) in mole fraction scale were used. A linear correlation between ΔGCT,X and ΔGsolT,X results in Equation (16):(16) ΔGCT,X=a⋅ΔGinh/solT,X+b where the slope (a) is the magnitude of the hydrophobic effect, and the intercept (b) is the structural factor. […]

[3] = buffer pH 2.0, 298.15 K, mole fraction scale
[4] = buffer pH 2.0 without CD, 298.15 K, mole fraction scale

## O=C1S/C(=C\c2ccc(Cl)cc2)C(=O)N1CC(O)CN1CCN(CC(O)(Cn2cncn2)c2ccc(F)cc2F)CC1 (centres unmarked) [RS-186, (Z)-5-(4-chlorobenzylidene)-3-(3-(4-(2-(2,4-difluorophenyl)-2-hydroxy-3-(1H-1,2,4-triazol-1-yl)propyl)piperazin-1-yl)-2-hydroxypropyl)thiazolidine-2,4-dione]
[1]; 298.15 K
  increase of the complex stability as compared to L-173: ~2.8 fold
[1]; 315.15 K
  increase of the complex stability as compared to L-173: ~1.8 fold
[1]; pH 2.0, 298.15 K
  Complexation efficiency (CE): 35.4%
  apparent stability constant (KCS): 708.9 M⁻¹ and 708.9 ± 71.4 M⁻¹
[1]; pH 2.0, 303.15 K
  Complexation efficiency (CE): 36.9%
  apparent stability constant (KCS): 688.0 ± 60.3 M⁻¹
[1]; pH 2.0, 310.15 K
  Complexation efficiency (CE): 39.1%
  apparent stability constant (KCS): 646.7 ± 61.5 M⁻¹
[1]; pH 2.0, 313.15 K
  Complexation efficiency (CE): 43.2%
  apparent stability constant (KCS): 623.6 ± 60.0 M⁻¹
[1]; pH 2.0 stability constants (Table 2)
  ability for complex formation with CD, racemic compound as compared to R-isomer: 1.3 fold
[1]; pH 7.4
  CE decrease with the temperature growth: 17 fold
[1]; pH 7.4, 298.15 K
  Complexation efficiency (CE): 10.3%
[1]; pH 7.4, 303.15 K
  Complexation efficiency (CE): 4.6%
[1]; pH 7.4, 310.15 K
  Complexation efficiency (CE): 1.7%
[1]; pH 7.4, 313.15 K
  Complexation efficiency (CE): 0.6%
[2]; CCD 0.01, 298.15 K
  Gibbs free energy of transfer from pure buffer pH 2.0 to CD solution: -4.73
[2]; CCD 0.01, 303.15 K
  Gibbs free energy of transfer from pure buffer pH 2.0 to CD solution: -4.83
[2]; CCD 0.01, 310.15 K
  Gibbs free energy of transfer from pure buffer pH 2.0 to CD solution: -5.12
[2]; CCD 0.01, 313.15 K
  Gibbs free energy of transfer from pure buffer pH 2.0 to CD solution: -5.43
[2]; CCD 0.03, 298.15 K
  Gibbs free energy of transfer from pure buffer pH 2.0 to CD solution: -6.90
[2]; CCD 0.03, 303.15 K
  Gibbs free energy of transfer from pure buffer pH 2.0 to CD solution: -7.10
[2]; CCD 0.03, 310.15 K
  Gibbs free energy of transfer from pure buffer pH 2.0 to CD solution: -7.36
[2]; CCD 0.03, 313.15 K
  Gibbs free energy of transfer from pure buffer pH 2.0 to CD solution: -7.66
[2]; CCD 0.04, 298.15 K
  Gibbs free energy of transfer from pure buffer pH 2.0 to CD solution: -7.64
[2]; CCD 0.04, 303.15 K
  Gibbs free energy of transfer from pure buffer pH 2.0 to CD solution: -7.84
[2]; CCD 0.04, 310.15 K
  Gibbs free energy of transfer from pure buffer pH 2.0 to CD solution: -8.15
[2]; CCD 0.04, 313.15 K
  Gibbs free energy of transfer from pure buffer pH 2.0 to CD solution: -8.52
[2]; CCD 0.05, 298.15 K
  Gibbs free energy of transfer from pure buffer pH 2.0 to CD solution: -8.22
[2]; CCD 0.05, 303.15 K
  Gibbs free energy of transfer from pure buffer pH 2.0 to CD solution: -8.43
[2]; CCD 0.05, 310.15 K
  Gibbs free energy of transfer from pure buffer pH 2.0 to CD solution: -8.75
[2]; CCD 0.05, 313.15 K
  Gibbs free energy of transfer from pure buffer pH 2.0 to CD solution: -9.06
[2]; Equation (16), pH 2.0, mole fraction scale
  slope (a) of ΔGC versus ΔGsol correlation, magnitude of the hydrophobic effect: −0.611
[2]; buffer pH 2.0, 298.15 K, calculated at maximal 0.05 M CD concentration
  solubilization: change of the standard Gibbs energy (ΔGslbz0,X): -1.96 kcal/mol
[2]; [3]
  change of the standard Gibbs energy of inclusion complex formation (ΔGC0,X): -3.7 kcal/mol
  enthalpy of inclusion complex formation (ΔHC0,X): -2.22 ± 0.311 kcal/mol
  entropy of inclusion complex formation (TΔSC0,X): 1.48 ± 0.22 kcal/mol
  solubilization entropy (TΔSslbz0,X): 3.59 ± 0.789 kcal/mol
[2]; [4]
  inherent solubility Gibbs energy (ΔGinh/sol0,X): 7.17 kcal/mol
  inherent solubility enthalpy (ΔHinh/sol0,X): 4.54 ± 0.526 kcal/mol
  inherent solubility entropy (TΔSinh/sol0,X): -2.63 ± 0.359 kcal/mol
[2]; complexation, pH 2.0, 298.15 K
  ratio |ΔHC0,X| > |TΔSC0,X|: about 1.5 fold
[2]; mole fraction scale, buffer pH 2.0, 298.15 K
  Complexation constant (KCX): 525.2 ± 52.9
[2]; pH 2.0
  contribution of the hydrophobic interactions to the driving force for complex stability: ~61%
